{"source": "ChEMBL document CHEMBL2021853", "about": "“Discovery of 1,2,4-triazine derivatives as adenosine A(2A) antagonists using structure based drug design” (J Med Chem, 2012)", "key": {"Liver microsomes": {"test_system": "Liver microsomes", "experiment": "Half life in rat liver microsomes at 1 uM"}, "[1]": {"experiment": "Kinetic solubility of the compound"}, "Plasma": {"test_system": "Plasma", "experiment": "Plasma protein binding in rat at 10 uM after 6 hrs"}, "Adenosine receptor A1": {"biological_target": "T1, Adenosine receptor A1 (Homo sapiens, UniProt P30542)", "T1 sequence (P30542 whole entry)": "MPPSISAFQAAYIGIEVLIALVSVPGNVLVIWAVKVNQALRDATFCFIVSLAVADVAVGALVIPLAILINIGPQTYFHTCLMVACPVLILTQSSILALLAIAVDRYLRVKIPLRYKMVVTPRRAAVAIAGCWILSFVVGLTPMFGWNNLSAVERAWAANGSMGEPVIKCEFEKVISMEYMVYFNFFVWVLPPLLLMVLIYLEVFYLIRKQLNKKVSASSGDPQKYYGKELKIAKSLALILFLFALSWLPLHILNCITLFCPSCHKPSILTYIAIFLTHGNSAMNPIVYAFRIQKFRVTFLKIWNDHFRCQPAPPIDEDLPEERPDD"}, "[2]": {"biological_target": "T2, Adenosine receptor A3 (Homo sapiens) (UniProt P0DMS8)", "T2 sequence (whole entry)": "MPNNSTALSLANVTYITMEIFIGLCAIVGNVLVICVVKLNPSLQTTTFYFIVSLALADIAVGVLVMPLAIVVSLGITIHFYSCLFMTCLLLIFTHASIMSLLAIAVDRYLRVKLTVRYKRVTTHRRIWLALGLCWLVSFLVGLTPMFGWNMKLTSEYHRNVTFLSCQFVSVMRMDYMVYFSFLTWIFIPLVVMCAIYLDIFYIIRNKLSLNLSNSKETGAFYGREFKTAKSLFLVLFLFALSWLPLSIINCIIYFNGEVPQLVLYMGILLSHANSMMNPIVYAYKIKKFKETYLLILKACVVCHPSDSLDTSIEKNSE", "experiment": "Antagonist activity at adenosine A3 receptor", "type": "functional"}, "Adenosine receptor A2b": {"biological_target": "T3, Adenosine receptor A2b (Homo sapiens, UniProt P29275)", "T3 sequence (P29275 whole entry)": "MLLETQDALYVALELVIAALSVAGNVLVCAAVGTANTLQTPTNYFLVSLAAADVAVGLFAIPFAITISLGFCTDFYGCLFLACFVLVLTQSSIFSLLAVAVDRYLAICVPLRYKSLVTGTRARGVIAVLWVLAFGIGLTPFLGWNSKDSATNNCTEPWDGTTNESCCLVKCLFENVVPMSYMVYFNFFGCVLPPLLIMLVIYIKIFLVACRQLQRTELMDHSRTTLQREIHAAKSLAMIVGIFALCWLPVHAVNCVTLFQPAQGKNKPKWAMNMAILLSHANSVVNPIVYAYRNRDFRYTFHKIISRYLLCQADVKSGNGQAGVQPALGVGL", "experiment": "Inhibition of adenosine A2B receptor"}, "[3]": {"experiment": "Plasma clearance in rat at 1 mg/kg, iv", "type": "ADME, organism-based", "design": "dose 1 mg/kg, route intravenous"}, "[4]": {"experiment": "Volume of distribution at steady state in rat at 1 mg/kg, iv", "type": "ADME, organism-based", "design": "dose 1 mg/kg, route intravenous", "conditions": "in vivo, read-out: Vdss"}, "[5]": {"experiment": "Terminal half life in rat at 1 mg/kg, iv", "type": "ADME, organism-based", "design": "dose 1 mg/kg, route intravenous", "conditions": "in vivo, read-out: beta t1/2 (converted)"}, "[6]": {"experiment": "AUC (infinity) in rat at 1 mg/kg, iv", "type": "ADME, organism-based", "design": "dose 1 mg/kg, route intravenous, time infinity", "conditions": "plasma"}, "Nucleic Acid": {"test_system": "Nucleic Acid", "experiment": "Ratio of drug level in brain to plasma in rat at 1 mg/kg, iv at 0.5 hrs", "type": "ADME, organism-based", "design": "dose 1 mg/kg, route intravenous"}, "[7]": {"experiment": "Tmax in rat at 2 mg/kg, po", "type": "ADME, organism-based", "design": "dose 2 mg/kg, route oral", "conditions": "in vivo"}, "[8]": {"experiment": "Cmax in rat at 2 mg/kg, po", "type": "ADME, organism-based", "design": "dose 2 mg/kg, route oral", "conditions": "in vivo"}, "[9]": {"experiment": "Terminal half life in rat at 2 mg/kg, po", "type": "ADME, organism-based", "design": "dose 2 mg/kg, route oral", "conditions": "in vivo, read-out: beta t1/2 (converted)"}, "[10]": {"experiment": "Oral bioavailability in rat at 2 mg/kg", "type": "ADME, organism-based", "conditions": "in vivo"}, "Rattus norvegicus [11]": {"test_system": "Rattus norvegicus", "experiment": "Reversal of haloperidol-induced catalepsy in po dosed Sprague-Dawley rat administered 30 mins post haloperidol-challenge measured after 1 hr", "type": "functional"}, "Rattus norvegicus [12]": {"test_system": "Rattus norvegicus", "experiment": "Reversal of haloperidol-induced catalepsy in po dosed Sprague-Dawley rat administered 30 mins post haloperidol-challenge measured after 2 hrs", "type": "functional"}}, "data": [{"compound": "Nc1nnc(-c2ccc(O)c(Cl)c2)c(-c2ccccc2)n1", "values": [{"measurement": "t1/2", "setting": "Liver microsomes", "value": 1.15, "unit": "h"}, {"measurement": "Kinetic_solubility", "setting": "[1]", "value": 45, "unit": "µM"}, {"measurement": "PPB", "setting": "Plasma", "value": 98, "unit": "%"}]}, {"compound": "Cc1cc(-c2nnc(N)nc2-c2cc(F)cc(F)c2)cc(C)n1", "values": [{"measurement": "Ki", "setting": "Adenosine receptor A1", "value": 170, "unit": "nM"}, {"measurement": "t1/2", "setting": "Liver microsomes", "value": 1.67, "unit": "h"}, {"measurement": "Kinetic_solubility", "setting": "[1]", "value": 45, "unit": "µM"}]}, {"compound": "Cc1cc(C)cc(-c2nnc(N)nc2-c2ccccc2)c1", "values": [{"measurement": "Ki", "setting": "Adenosine receptor A1", "value": 195, "unit": "nM"}, {"measurement": "t1/2", "setting": "Liver microsomes", "value": 0.15, "unit": "h"}, {"measurement": "Kinetic_solubility", "setting": "[1]", "value": 20, "unit": "µM"}, {"measurement": "PPB", "setting": "Plasma", "value": 98, "unit": "%"}]}, {"compound": "Nc1nnc(-c2ccccc2)c(-c2ccccc2)n1", "values": [{"measurement": "Ki", "setting": "Adenosine receptor A1", "value": 275, "unit": "nM"}, {"measurement": "t1/2", "setting": "Liver microsomes", "value": 0.383, "unit": "h"}, {"measurement": "Kinetic_solubility", "setting": "[1]", "value": "> 100", "unit": "µM"}]}, {"compound": "Nc1nnc(-c2cc(Cl)cc(Cl)c2)c(-c2ccccc2)n1", "values": [{"measurement": "t1/2", "setting": "Liver microsomes", "value": 1.8, "unit": "h"}, {"measurement": "INH", "setting": "[2]", "value": "> 10", "unit": "µM"}]}, {"compound": "Cc1cc(-c2nnc(N)nc2-c2cccc(F)c2)cc(C)n1", "values": [{"measurement": "Ki", "setting": "Adenosine receptor A1", "value": 110, "unit": "nM"}, {"measurement": "t1/2", "setting": "Liver microsomes", "value": 1.3, "unit": "h"}, {"measurement": "PPB", "setting": "Plasma", "value": 87, "unit": "%"}]}, {"compound": "Cc1cc(-c2nnc(N)nc2-c2ccccc2)cc(C)n1", "values": [{"measurement": "Ki", "setting": "Adenosine receptor A1", "value": 85.1, "unit": "nM"}, {"measurement": "t1/2", "setting": "Liver microsomes", "value": 1.67, "unit": "h"}, {"measurement": "Kinetic_solubility", "setting": "[1]", "value": 40, "unit": "µM"}, {"measurement": "PPB", "setting": "Plasma", "value": 82.1, "unit": "%"}, {"measurement": "INH", "setting": "[2]", "value": "> 10", "unit": "µM"}, {"measurement": "Ki", "setting": "Adenosine receptor A2b", "value": 50.1, "unit": "nM"}]}, {"compound": "Nc1nnc(-c2cccc(Cl)c2)c(-c2ccccc2)n1", "values": [{"measurement": "t1/2", "setting": "Liver microsomes", "value": 0.483, "unit": "h"}, {"measurement": "PPB", "setting": "Plasma", "value": 97.9, "unit": "%"}]}, {"compound": "Cc1cc(-c2nnc(N)nc2-c2ccc(F)cc2)cc(C(F)(F)F)n1", "values": [{"measurement": "Ki", "setting": "Adenosine receptor A1", "value": 117, "unit": "nM"}, {"measurement": "t1/2", "setting": "Liver microsomes", "value": 1.62, "unit": "h"}, {"measurement": "PPB", "setting": "Plasma", "value": 93, "unit": "%"}]}, {"compound": "Cc1cc(-c2nnc(N)nc2-c2ccccc2)cc(C(F)(F)F)n1", "values": [{"measurement": "t1/2", "setting": "Liver microsomes", "value": 1.43, "unit": "h"}, {"measurement": "PPB", "setting": "Plasma", "value": 92, "unit": "%"}, {"measurement": "clearance", "setting": "[3]", "value": 42, "unit": "mL/min/kg"}, {"measurement": "Vd", "setting": "[4]", "value": 4.6, "unit": "L/kg"}, {"measurement": "half-life", "setting": "[5]", "value": 1.2, "unit": "h"}, {"measurement": "AUC(0-inf)", "setting": "[6]", "value": 397, "unit": "ng·h/mL"}, {"measurement": "BPR", "setting": "Nucleic Acid", "value": 3.2}, {"measurement": "Tmax", "setting": "[7]", "value": 0.4, "unit": "h"}, {"measurement": "Cmax", "setting": "[8]", "value": 244, "unit": "ng/mL"}, {"measurement": "half-life", "setting": "[9]", "value": 1.1, "unit": "h"}, {"measurement": "bioavailability", "setting": "[10]", "value": 100, "unit": "%"}, {"measurement": "Activity", "setting": "Rattus norvegicus [11]", "value": "Dose-dependent effect"}, {"measurement": "ED50", "setting": "Rattus norvegicus [11]", "value": 0.2, "unit": "mg/kg"}, {"measurement": "Activity", "setting": "Rattus norvegicus [12]", "value": "Dose-dependent effect"}, {"measurement": "ED50", "setting": "Rattus norvegicus [12]", "value": 0.2, "unit": "mg/kg"}]}, {"compound": "Cc1cc(-c2nnc(N)nc2-c2ccccc2)cc(C)c1O", "values": [{"measurement": "Ki", "setting": "Adenosine receptor A1", "value": 16.6, "unit": "nM"}, {"measurement": "t1/2", "setting": "Liver microsomes", "value": 1.25, "unit": "h"}, {"measurement": "PPB", "setting": "Plasma", "value": 93.3, "unit": "%"}]}]}
